Data from publication PMC7241567 (Journal of Enzyme Inhibition and Medicinal Chemistry, 2020).
“Also recorded” adds a separate entry of the source.

Experiments:
Format in all cases: biochemical
[1] = target: T1, AKT1 (Homo sapiens, UniProt P31749); assay: Reaction Biology Kinase HotSpot radiometric kinase assay
T1 construct: purchased Reaction Biology Corp. (Kinase HotSpot service)

[2] = target: T2, ERK1 (Homo sapiens, UniProt P27361); assay: as above; conditions: 10 µM
T2 construct: purchased Reaction Biology Corp. (Kinase HotSpot service)

[3] = target: T3, AXL (R499C) (Homo sapiens, UniProt P30530, R499C); assay: as above
T3 construct: purchased Reaction Biology Corp. (Kinase HotSpot service)

[4] = target: T4, KDR/VEGFR2 (Homo sapiens, UniProt P35968); assay: as above
T4 construct: purchased Reaction Biology Corp. (Kinase HotSpot service)

[5] = target: T5, ROS/ROS1 (Homo sapiens, UniProt P08922); assay: as above
T5 construct: purchased Reaction Biology Corp. (Kinase HotSpot service)

[6] = target: T6, FLT3 (Homo sapiens, UniProt P36888); assay: as above
T6 construct: purchased Reaction Biology Corp. (Kinase HotSpot service)
T6 sequence (P36888 27-993): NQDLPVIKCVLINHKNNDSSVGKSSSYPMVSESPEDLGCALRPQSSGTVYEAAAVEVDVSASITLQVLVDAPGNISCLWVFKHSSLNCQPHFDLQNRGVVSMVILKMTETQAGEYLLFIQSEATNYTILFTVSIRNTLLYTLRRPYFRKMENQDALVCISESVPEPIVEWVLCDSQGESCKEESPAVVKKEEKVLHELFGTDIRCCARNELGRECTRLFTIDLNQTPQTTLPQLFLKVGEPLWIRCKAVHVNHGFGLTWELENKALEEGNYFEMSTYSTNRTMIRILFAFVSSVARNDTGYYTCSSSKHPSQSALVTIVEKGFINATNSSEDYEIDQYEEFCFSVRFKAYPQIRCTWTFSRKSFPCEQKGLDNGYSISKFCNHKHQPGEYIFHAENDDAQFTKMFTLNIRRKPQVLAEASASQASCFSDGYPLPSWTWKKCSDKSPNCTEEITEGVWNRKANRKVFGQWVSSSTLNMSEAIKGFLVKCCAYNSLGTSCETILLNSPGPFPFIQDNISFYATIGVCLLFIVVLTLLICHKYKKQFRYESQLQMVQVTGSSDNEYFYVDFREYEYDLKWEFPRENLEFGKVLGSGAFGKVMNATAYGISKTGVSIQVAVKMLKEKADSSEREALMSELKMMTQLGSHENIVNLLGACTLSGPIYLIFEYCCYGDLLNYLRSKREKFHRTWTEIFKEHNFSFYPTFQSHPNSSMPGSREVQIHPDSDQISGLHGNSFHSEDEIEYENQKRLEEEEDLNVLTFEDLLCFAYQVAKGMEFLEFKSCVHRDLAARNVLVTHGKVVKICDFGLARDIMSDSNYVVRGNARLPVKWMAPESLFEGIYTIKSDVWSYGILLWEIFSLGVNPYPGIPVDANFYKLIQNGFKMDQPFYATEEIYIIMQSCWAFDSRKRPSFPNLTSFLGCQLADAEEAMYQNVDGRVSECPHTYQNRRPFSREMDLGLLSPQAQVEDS

[7] = target: T7, MEK1 (Homo sapiens, UniProt Q02750); assay: as above
T7 construct: purchased Reaction Biology Corp. (Kinase HotSpot service)

[8] = target: T8, ALK (Homo sapiens, UniProt Q9UM73); assay: as above
T8 construct: purchased Reaction Biology Corp. (Kinase HotSpot service)

[9] = target: FLT3 (F594_R595 ins EY) (Homo sapiens, UniProt P36888); assay: Enzymatic activity against FLT3 mutants
[10] = target: T9, c-MET (Homo sapiens, UniProt P08581); assay: Reaction Biology Kinase HotSpot radiometric kinase assay
T9 construct: purchased Reaction Biology Corp. (Kinase HotSpot service)

[11] = target: T10, PLK1 (Homo sapiens, UniProt P53350); assay: as above
T10 construct: purchased Reaction Biology Corp. (Kinase HotSpot service)

[12] = target: T11, ABL1 (Homo sapiens, UniProt P00519); assay: as above
T11 construct: purchased Reaction Biology Corp. (Kinase HotSpot service)

[13] = tested on: other kinases including FMS and cKit; assay: Kinase panel screening, overall selectivity; conditions: 36 different kinases, single dose of 10 µM
Description: Next, we investigated kinase panel screening of 7d and 7b over 36 different kinases at a single dose of 10 µM (Figure 5). […] High selectivity over cKit might be an opportunity to avoid myelosuppression toxicity, which was reported from a dual FLT3/cKit inhibitor[19–22]. It is a valuable result to secure such a kinase selectivity profile considering the similarities of the same type III receptor tyrosine kinase (FMS, cKit and FLT3).
3. Evaluation of IC50 and Selected Kinase Profiling
We used Reaction Biology Corp. Kinase HotSpotSM service (www.reactionbiology.com) for IC50 determination of all compounds and kinase profile. Assay protocol: In a final reaction volume of 25 μL, Peptide substrate, [[…]], 5 µM, ATP 10 µM, FLT3(h) (5-10 […]
mU) is incubated with 25 mM Tris pH 7.5, 0.02 mM EGTA, 0.66 mg/mL myelin basic protein, 10 mM Mg Acetate and [γ-33P-ATP] (specific activity approx. 500 cpm/pmol, concentration as required). The reaction is initiated by the addition of the Mg-ATP mix. After incubation for 40 minutes at room temperature, the reaction is stopped by the addition of 5 μL of a 3% phosphoric acid solution. 10 μL of the reaction is then spotted onto a P30 filtermat and washed three times for 5 minutes in 75 mM phosphoric acid and once in methanol prior to drying and […]

T9 sequence (P08581 25-1390): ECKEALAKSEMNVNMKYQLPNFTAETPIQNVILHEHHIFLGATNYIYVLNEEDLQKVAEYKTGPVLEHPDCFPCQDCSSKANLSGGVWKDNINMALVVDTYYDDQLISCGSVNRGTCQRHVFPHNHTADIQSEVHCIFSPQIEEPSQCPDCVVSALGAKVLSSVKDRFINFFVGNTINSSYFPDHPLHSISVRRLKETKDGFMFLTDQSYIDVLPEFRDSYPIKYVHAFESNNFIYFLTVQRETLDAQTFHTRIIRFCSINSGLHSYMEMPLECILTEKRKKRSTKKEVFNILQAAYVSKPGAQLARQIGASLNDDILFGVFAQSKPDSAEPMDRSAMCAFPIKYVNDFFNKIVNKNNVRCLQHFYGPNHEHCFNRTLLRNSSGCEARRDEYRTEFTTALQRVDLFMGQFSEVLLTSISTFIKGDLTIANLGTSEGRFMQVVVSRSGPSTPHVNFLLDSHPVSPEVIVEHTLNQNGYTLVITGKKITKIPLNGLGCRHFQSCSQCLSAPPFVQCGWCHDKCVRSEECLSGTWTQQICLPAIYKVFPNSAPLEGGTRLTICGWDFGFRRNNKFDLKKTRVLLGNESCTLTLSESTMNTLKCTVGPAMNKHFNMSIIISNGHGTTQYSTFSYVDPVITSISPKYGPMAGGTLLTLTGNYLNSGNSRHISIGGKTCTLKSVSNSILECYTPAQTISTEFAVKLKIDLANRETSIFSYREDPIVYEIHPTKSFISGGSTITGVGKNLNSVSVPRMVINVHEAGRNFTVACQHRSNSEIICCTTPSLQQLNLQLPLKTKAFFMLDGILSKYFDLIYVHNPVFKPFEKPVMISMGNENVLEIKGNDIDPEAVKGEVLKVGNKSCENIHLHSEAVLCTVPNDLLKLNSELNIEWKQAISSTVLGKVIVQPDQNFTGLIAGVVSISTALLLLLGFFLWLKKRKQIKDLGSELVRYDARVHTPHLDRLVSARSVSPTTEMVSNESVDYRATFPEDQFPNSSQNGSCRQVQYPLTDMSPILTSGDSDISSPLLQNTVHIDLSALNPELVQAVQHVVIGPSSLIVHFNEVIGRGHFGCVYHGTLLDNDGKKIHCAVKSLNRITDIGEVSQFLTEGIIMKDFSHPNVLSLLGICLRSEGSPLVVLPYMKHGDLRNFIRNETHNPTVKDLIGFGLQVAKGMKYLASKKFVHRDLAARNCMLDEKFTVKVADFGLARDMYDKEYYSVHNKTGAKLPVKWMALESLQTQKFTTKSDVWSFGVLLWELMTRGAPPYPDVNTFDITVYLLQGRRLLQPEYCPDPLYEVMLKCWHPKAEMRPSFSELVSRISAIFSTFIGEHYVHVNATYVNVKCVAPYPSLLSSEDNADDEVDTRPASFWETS
T3 sequence (P30530 26-894 R499C): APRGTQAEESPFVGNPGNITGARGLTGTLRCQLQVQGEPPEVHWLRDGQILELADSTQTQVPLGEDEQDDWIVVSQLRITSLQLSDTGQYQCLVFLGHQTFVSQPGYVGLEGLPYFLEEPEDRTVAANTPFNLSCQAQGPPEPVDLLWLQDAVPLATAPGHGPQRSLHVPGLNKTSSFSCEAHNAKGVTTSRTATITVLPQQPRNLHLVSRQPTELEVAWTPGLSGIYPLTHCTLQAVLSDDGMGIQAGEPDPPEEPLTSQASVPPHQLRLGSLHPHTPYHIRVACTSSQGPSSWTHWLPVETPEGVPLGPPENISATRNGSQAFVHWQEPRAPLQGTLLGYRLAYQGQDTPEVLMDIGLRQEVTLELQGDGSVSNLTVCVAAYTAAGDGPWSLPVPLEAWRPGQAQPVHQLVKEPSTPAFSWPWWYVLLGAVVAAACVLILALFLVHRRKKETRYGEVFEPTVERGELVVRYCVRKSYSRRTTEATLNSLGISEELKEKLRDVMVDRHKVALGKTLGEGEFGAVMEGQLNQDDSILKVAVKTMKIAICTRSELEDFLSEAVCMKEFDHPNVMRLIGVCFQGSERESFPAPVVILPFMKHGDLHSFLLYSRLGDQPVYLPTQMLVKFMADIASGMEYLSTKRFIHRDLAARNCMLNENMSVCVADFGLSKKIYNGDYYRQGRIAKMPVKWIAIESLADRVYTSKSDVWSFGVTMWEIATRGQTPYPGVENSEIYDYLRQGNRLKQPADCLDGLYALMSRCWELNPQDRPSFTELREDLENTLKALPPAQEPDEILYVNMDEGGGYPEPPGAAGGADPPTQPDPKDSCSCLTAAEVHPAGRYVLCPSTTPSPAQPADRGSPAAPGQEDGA
T2 sequence (P27361 whole entry): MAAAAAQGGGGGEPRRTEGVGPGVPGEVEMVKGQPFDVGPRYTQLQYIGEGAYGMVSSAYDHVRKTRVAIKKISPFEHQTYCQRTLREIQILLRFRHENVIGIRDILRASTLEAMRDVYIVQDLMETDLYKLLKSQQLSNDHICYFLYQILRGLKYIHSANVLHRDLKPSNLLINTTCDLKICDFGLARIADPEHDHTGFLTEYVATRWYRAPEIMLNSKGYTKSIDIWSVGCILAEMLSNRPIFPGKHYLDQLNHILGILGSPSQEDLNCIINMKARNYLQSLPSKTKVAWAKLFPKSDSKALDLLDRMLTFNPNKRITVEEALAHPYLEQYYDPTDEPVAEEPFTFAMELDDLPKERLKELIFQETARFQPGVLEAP
T8 sequence (Q9UM73 19-1620): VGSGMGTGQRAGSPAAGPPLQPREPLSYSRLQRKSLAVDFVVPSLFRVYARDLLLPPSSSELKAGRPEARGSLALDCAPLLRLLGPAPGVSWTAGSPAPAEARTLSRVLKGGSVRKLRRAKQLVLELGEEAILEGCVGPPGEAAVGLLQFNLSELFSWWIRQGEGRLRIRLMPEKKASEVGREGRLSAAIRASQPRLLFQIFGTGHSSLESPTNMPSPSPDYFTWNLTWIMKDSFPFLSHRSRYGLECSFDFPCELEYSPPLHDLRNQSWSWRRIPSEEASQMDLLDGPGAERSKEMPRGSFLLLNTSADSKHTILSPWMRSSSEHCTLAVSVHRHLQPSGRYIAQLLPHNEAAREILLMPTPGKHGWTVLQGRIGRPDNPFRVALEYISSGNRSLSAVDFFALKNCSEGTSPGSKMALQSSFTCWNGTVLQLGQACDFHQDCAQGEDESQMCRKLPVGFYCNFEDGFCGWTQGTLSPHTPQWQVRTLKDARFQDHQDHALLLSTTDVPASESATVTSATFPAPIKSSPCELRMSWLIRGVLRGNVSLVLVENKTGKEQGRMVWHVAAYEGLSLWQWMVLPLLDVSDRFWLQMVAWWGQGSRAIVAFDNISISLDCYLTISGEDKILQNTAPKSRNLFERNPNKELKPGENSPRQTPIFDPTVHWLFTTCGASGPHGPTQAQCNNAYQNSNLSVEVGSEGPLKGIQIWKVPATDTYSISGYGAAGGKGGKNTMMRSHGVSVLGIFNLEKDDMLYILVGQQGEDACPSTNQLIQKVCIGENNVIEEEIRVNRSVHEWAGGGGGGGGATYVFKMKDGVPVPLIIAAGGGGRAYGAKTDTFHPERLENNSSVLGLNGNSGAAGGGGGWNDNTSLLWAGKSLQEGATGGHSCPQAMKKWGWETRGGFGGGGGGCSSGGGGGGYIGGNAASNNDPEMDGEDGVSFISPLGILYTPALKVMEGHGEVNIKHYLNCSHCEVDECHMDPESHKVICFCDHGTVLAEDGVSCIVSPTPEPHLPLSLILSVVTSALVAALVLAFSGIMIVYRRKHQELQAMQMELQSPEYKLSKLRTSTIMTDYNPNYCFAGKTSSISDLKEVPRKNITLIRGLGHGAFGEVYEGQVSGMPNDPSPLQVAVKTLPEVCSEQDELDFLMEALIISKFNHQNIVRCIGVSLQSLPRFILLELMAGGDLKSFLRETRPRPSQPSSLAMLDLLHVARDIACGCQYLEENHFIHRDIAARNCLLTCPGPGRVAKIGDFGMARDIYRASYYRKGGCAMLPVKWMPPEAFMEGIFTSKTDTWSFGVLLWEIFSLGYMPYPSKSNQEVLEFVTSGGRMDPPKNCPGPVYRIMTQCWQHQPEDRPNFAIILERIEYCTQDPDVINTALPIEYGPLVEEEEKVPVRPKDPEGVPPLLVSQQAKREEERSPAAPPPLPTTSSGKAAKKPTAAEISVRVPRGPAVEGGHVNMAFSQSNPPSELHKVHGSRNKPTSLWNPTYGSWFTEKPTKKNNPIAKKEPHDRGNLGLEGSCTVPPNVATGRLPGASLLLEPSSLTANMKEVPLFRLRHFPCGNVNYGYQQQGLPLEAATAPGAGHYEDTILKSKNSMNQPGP
T7 sequence (Q02750 whole entry): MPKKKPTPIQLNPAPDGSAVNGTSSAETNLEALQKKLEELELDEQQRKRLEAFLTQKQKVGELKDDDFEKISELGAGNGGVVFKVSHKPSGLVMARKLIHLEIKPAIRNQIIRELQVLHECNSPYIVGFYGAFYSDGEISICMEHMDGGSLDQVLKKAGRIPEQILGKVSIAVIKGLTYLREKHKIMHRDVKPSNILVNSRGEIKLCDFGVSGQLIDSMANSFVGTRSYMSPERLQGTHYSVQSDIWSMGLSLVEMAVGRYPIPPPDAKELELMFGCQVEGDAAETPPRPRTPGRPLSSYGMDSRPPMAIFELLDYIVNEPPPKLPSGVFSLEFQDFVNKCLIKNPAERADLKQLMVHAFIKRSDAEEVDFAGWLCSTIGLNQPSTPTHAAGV
T1 sequence (P31749 whole entry): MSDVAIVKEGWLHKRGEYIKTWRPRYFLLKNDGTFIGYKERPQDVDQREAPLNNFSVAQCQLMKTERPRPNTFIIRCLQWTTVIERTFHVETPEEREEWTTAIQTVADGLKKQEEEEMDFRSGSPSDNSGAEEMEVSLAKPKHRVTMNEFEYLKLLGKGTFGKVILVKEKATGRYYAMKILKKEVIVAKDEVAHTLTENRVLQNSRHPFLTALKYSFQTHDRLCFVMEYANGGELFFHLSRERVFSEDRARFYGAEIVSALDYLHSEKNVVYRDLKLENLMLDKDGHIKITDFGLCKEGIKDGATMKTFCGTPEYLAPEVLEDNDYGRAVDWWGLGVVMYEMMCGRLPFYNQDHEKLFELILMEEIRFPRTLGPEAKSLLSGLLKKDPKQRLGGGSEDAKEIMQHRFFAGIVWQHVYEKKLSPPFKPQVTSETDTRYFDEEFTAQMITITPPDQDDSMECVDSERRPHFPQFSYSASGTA

**Q.** Which results are given for Cc1oncc1C(=O)Nc1ccc2cnc(-c3cc(N4CCN(C)CC4)cc(C(F)(F)F)c3)nc2c1 [Compound 7d, 5-methyl-N-(2-(3-(4-methylpiperazin-1-yl)-5-(trifluoromethyl)phenyl)quinazolin-7-yl)isoxazole-4-carboxamide]?
**A.** inhibition at 10 µM [1]: 5.48%; inhibition at 10 µM [2]: 15%; inhibition at 10 µM [3]: 10.1%; inhibition at 10 µM [4]: 16.8%; inhibition at 10 µM [5]: 14.4%; inhibition at 10 µM [6]: 96.6%; inhibitory activity towards FLT3 (in words) [6]: maintained the activity; also recorded: maintained inhibitory activity; IC50 ([6]; FLT3 wild type, read-out: IC50 against FLT3): 106 nM; inhibition at 10 µM [7]: 0%; inhibition at 10 µM [8]: 17%; IC50 [9]: 495 nM; inhibition at 10 µM [10]: 13.2%; inhibition at 10 µM [11]: 0%; inhibition at 10 µM [12]: 6.46%; activity on other kinases in panel (in words) [13]: almost no activity
